Test results taken from ChEMBL document CHEMBL4417631, “Oral peptide inhibitors of interleukin-23 receptor and their use to treat inflammatory bowel diseases” (2017).
The source made the active and inactive calls. The calls are words filed in the database; no cut-off is given here. Where a SMILES comes first, the peptide text is derived from it.

What was measured:
[1] = system: Rattus norvegicus; test: Anti-colitis activity in Sprague-Dawley rat model of DSS-induced colitis assessed as reduction in colon macroscopic scores at 30 mg/kg, ip dosed 3 times per day; assay type: functional, organism-based
[2] = system: Rattus norvegicus; test: Anti-colitis activity in Sprague-Dawley rat model of DSS-induced colitis assessed as colon weight/colon length ratio at 30 mg/kg, po dosed 3 times per day (124.36 +/- 17.11 g/cm); assay type: functional
[3] = system: Rattus norvegicus; test: Anti-colitis activity in Sprague-Dawley rat model of DSS-induced colitis assessed as improvement in stool consistency scores level at 30 mg/kg, po dosed 3 times per day; assay type: functional, organism-based
[4] = system: Rattus norvegicus; test: Anti-colitis activity in Sprague-Dawley rat model of DSS-induced colitis assessed as improvement in stool consistency scores level at 30 mg/kg, ip dosed 3 times per day; assay type: functional, organism-based
[5] = system: Rattus norvegicus; test: Anti-colitis activity in Sprague-Dawley rat model of DSS-induced colitis assessed as reduction in colon macroscopic scores at 30 mg/kg, po dosed 3 times per day; assay type: functional, organism-based
[6] = system: PBMC; test: Inhibition of IL12-stimulated IFNgamma production in PHA-activated human PBMC at 0.0001 to 100 uM by ELISA; assay type: functional, cell-based
[7] = system: Rattus norvegicus; test: Anti-colitis activity in Sprague-Dawley rat model of DSS-induced colitis assessed as improvement in hematocrit scores level at 30 mg/kg, ip dosed 3 times per day; assay type: functional, organism-based
[8] = system: Rattus norvegicus; test: Anti-colitis activity in Sprague-Dawley rat model of DSS-induced colitis assessed as improvement in hematocrit scores level at 30 mg/kg, po dosed 3 times per day; assay type: functional, organism-based
[9] = system: Rattus norvegicus; test: Anti-colitis activity in Sprague-Dawley rat model of DSS-induced colitis assessed as change in body weight at 30 mg/kg, po dosed 3 times per day (-6.39 +/- 1.11%); assay type: functional
[10] = system: Rattus norvegicus; test: Anti-colitis activity in Sprague-Dawley rat model of DSS-induced colitis assessed as reduction in disease activity index at 30 mg/kg, po dosed 3 times per day; assay type: functional
[11] = target: T1, Interleukin-23 receptor (Mus musculus, UniProt Q8K4B4); test: Inhibition of interleukin-23 binding to mouse interleukin-23 receptor incubated for 2 hrs by competitive binding ELISA
T1 sequence (Q8K4B4 whole entry): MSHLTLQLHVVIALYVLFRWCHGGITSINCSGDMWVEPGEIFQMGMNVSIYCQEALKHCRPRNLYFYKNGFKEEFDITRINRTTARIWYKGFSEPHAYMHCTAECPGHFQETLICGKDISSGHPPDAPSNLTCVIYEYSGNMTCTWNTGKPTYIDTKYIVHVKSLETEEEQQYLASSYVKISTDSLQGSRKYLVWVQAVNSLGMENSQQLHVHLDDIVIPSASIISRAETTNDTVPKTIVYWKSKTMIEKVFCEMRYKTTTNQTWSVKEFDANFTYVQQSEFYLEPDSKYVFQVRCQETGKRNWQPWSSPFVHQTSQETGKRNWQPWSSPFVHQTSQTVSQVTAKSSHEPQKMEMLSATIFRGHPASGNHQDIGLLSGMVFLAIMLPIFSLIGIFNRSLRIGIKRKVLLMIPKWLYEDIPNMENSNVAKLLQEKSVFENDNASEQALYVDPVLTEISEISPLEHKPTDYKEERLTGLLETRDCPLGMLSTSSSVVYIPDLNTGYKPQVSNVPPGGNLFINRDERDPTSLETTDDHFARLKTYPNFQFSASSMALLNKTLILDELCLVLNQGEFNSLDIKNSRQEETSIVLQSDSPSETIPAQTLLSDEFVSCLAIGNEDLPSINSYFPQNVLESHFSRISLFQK

[12] = target: T2, Interleukin-23 receptor (Homo sapiens, UniProt Q5VWK5); test: Inhibition of interleukin-23 receptor in human DB cells assessed as reduction in IL-23-stimulated STAT3 phosphorylation incubated for 30 mins by HTRF assay; assay type: cell-based
T2 sequence (Q5VWK5 whole entry): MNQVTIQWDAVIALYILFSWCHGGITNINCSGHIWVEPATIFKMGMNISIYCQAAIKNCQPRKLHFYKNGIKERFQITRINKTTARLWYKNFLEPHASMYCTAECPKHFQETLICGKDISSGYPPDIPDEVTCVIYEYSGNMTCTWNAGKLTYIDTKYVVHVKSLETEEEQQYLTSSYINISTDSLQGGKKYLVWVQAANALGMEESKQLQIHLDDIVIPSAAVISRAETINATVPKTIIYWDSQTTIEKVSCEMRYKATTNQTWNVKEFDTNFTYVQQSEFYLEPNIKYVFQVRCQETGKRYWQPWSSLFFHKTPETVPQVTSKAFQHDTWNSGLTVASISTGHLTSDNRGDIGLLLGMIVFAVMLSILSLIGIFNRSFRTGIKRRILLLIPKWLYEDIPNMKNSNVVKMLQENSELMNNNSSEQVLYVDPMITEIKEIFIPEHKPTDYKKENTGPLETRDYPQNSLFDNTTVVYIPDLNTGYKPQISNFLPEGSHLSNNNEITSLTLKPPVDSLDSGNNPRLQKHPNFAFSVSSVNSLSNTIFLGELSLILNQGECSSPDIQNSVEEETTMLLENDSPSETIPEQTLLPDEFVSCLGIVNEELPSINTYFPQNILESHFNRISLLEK

[13] = target: T2, Interleukin-23 receptor; test: Inhibition of interleukin-23 binding to human interleukin-23 receptor incubated for 2 hrs by competitive binding ELISA
[14] = Inhibition of interleukin-23 binding to cynomolgus monkey interleukin-23 receptor incubated for 2 hrs by competitive binding ELISA; design: species or system Macaca fascicularis
[15] = Inhibition of interleukin-23 binding to rat interleukin-23 receptor incubated for 2 hrs by competitive binding ELISA
[16] = Half life in simulated intestinal fluid at 20 uM by LC-MS/MS analysis; assay type: ADME
[17] = Half life in DTT at 50 uM up up to 120 mins by reverse phase HPLC and UV detection based assay; assay type: physicochemical
[18] = system: Rattus norvegicus; test: Anti-colitis activity in Sprague-Dawley rat model of DSS-induced colitis assessed as reduction in disease activity index at 100 mg/kg, po qd for 9 days; assay type: functional, organism-based
[19] = Half life in simulated gastric fluid at 20 uM by LC-MS/MS analysis; assay type: ADME

COc1ccc(C[C@H](NC(=O)[C@H]2NC(=O)[C@H](CCC(N)=O)NC(=O)[C@H](Cc3c[nH]c4ccccc34)NC(=O)[C@H]([C@@H](C)O)NC(=O)[C@H](CCC(N)=O)NC(=O)[C@@H](NC(C)=O)C(C)(C)SSC2(C)C)C(=O)N[C@@H](Cc2ccc3ccccc3c2)C(=O)N[C@@](C)(CCCCN)C(=O)N[C@@H](CCC(=O)O)C(=O)N[C@@H](CC(N)=O)C(=O)NCC(N)=O)cc1
Activity [1]: Active
Ratio [2]: 97.36 g/cm
Activity [3]: Active
Activity [4]: Active
Activity [5]: Active
inhibition [6]: inactive
Activity [7]: Active
Activity [8]: Active
Activity [9]: 0.13%
Activity_index [10]: 0.61

CC(=O)N[C@@H](CS)C(=O)N[C@@H](CCC(N)=O)C(=O)N[C@H](C(=O)N[C@@H](Cc1c[nH]c2ccccc12)C(=O)N[C@@H](CCC(N)=O)C(=O)N[C@@H](CS)C(=O)N[C@@H](Cc1ccc(O)cc1)C(=O)N[C@@H](Cc1c[nH]c2ccccc12)C(=O)N[C@@H](CCCNC(N)=O)C(=O)N[C@@H](CN)C(=O)N[C@@H](Cc1ccccc1)C(=O)NCC(=O)NCCOCC(=O)N[C@H](CCCCN)C(N)=O)[C@@H](C)O
IC50 [11]: > 25 µM
IC50 [12]: 1000 to 10000 nM
IC50 [13]: 25 to 10000 nM
IC50 [14]: 1 to 10 µM
IC50 [15]: 1000 to 10000 nM

CC(=O)N[C@H]1CCSC[C@@H](C(=O)N[C@@H](Cc2ccc(O)cc2)C(=O)N[C@@H](Cc2c[nH]c3ccccc23)C(=O)N[C@@H](CCCNC(=N)N)C(=O)N[C@@H](CCCCN)C(=O)N[C@@H](Cc2ccccc2)C(=O)NCC(=O)NCCOCC(=O)N[C@H](CCCCN)C(N)=O)NC(=O)[C@H](CCC(N)=O)NC(=O)[C@H](Cc2c[nH]c3ccccc23)NC(=O)[C@H]([C@@H](C)O)NC(=O)[C@H](CCCNC(=N)N)NC1=O
half-life at 20 µM [16]: < 60 min
IC50 [12]: 25 to 100 nM
half-life at 50 µM [17]: > 120 min
IC50 [13]: 25 to 100 nM
IC50 [15]: 100 to 1000 nM

O=C(O)c1cc(/N=N/c2ccc(S(=O)(=O)Nc3ccccn3)cc2)ccc1O
Activity [18]: Active

COc1ccc(C[C@H](NC(=O)[C@@H](NC(=O)[C@H](CCC(N)=O)NC(=O)[C@H](Cc2c[nH]c3ccccc23)NC(=O)[C@@H](NC(=O)[C@H](CCC(N)=O)NC(=O)[C@@H](NC(C)=O)C(C)(C)S)[C@@H](C)O)C(C)(C)S)C(=O)N[C@@H](Cc2ccc3ccccc3c2)C(=O)N[C@@](C)(CCCCN)C(=O)N[C@@H](CCC(=O)O)C(=O)N[C@@H](CC(N)=O)C(=O)NCC(N)=O)cc1
half-life at 20 µM [16]: 180 to 360 min
half-life at 20 µM [19]: 120 to 180 min
IC50 [12]: 10 to 25 nM
half-life at 50 µM [17]: > 120 min
IC50 [13]: 25 to 100 nM
IC50 [15]: 100 to 1000 nM

CC(C)[C@H](NC(=O)[C@H](Cc1c[nH]c2ccccc12)NC(=O)[C@H](CC(=O)O)NC(=O)[C@H](C)NC(=O)[C@@H](N)CS)C(=O)N[C@@H](CS)C(=O)N[C@@H](Cc1ccc(O)cc1)C(=O)N[C@@H](Cc1c[nH]c2ccccc12)C(=O)N[C@@H](Cc1cnc[nH]1)C(=O)N[C@H](C(=O)N[C@@H](Cc1ccccc1)C(=O)NCC(N)=O)[C@@H](C)O
IC50 [11]: > 25 µM
IC50 [12]: 100 to 1000 nM
IC50 [13]: 100 to 1000 nM
IC50 [14]: 1 to 10 µM
IC50 [15]: 251 to 1000 nM

N=C(N)NCCC[C@H](NC(=O)[C@@H](N)CS)C(=O)N[C@@H](CC(=O)O)C(=O)N[C@@H](Cc1c[nH]c2ccccc12)C(=O)N[C@@H](CCC(N)=O)C(=O)N[C@@H](CS)C(=O)N[C@@H](Cc1ccc(O)cc1)C(=O)N[C@@H](Cc1c[nH]c2ccccc12)C(=O)N[C@@H](Cc1cnc[nH]1)C(=O)N[C@@H](CCCCN)C(=O)N[C@@H](Cc1ccccc1)C(=O)NCC(N)=O (H-CRDWQCYWHKFG-NH2)
IC50 [11]: > 25 µM
IC50 [13]: 251 to 1000 nM
IC50 [15]: 251 to 1000 nM
